Assay results from US10407488B2, “Therapy for treatment or prevention of conditions associated with bleeding or hypocoagulation” (THE REGENTS OF THE UNIVERSITY OF CALIFORNIA, priority 2013, dated 2019).

Tests used:
[1] = tested on: aPTT clotting time in human plasma; assay: aPTT clotting assay in human plasma with rhAPC; type: biochemical
Procedure: APC-mediated inactivation of FVa was analyzed in ETP assays and aPTT clotting assays. FVa mutants were incubated with equal volumes of either recombinant human APC (Xigris®) or buffer in human and murine Balb/c plasma.
Plasma (50 μL) was mixed with 50 μL of a PTT reagent (APTT-XL, Pacific Hemostasis) and incubated at 37° C. for 3 minutes in the presence of FVa either with recombinant human APC or buffer. Following addition of 25 μL of 50 mM CaCl2 in HBS, 0.5% BSA, the clotting time was recorded using an ST4 coagulometer (Diagnostica Stago).

[2] = tested on: Balb/c mice; assay: Liver laceration bleeding assay, APC-induced bleeding in Balb/c mice; type: in vivo
Procedure: Mice were anesthetized with Isofluorane 3% and the abdomen was opened by substernal blunt midline dissection. […] Immediately after laceration mice were positioned prone into a small weighing dish (8 cm diameter) filled with saline (37° C., 13 mL), transferred into the anesthesia chamber which rested on a heating pad (37° C.). Anesthesia was maintained at 3% Isofluorane and dishes were changed after 10 minutes to collect blood for the first and second 10 minutes separately. Blood loss was determined as described for the tail clip model. Groups of Balb/c mice were injected intravenously (tail vein) with equal volumes (200 μL) of ^superFVa or saline 2 minutes prior to intravenous injection of plasma-derived human APC, followed immediately by liver laceration. All agents were diluted in sterile sodium chloride 0.9% for injection (Hospira Inc).

[3] = tested on: FVIII-deficient mice; assay: Tail clip bleeding assay in FVIII-deficient mice; type: in vivo, mouse; settings: 20 minutes
Procedure: Mice were anesthetized with Isoflurane 3%, placed on temperature controlled heating pads (37° C.), and the distal portion of the tail was cut at 1.5 mm diameter after which the tail was immersed in a predefined volume of 37° C. saline (0.9% NaCl) for 20 minutes. To study effects on bleeding and clot stability, tubes were changed after 10 minutes to collect blood for the first and second 10 minutes separately. Blood loss was determined by the hemoglobin concentration in the saline solution after red cell lysis with 2% acetic acid and measured by absorbance at 490 nm. Using a hemoglobin standard derived from defined blood volumes, blood loss was calculated assuming a hematocrit of 46% and expressed in μL/g body weight. Groups of Balb/c mice were injected intravenously (tail vein) with equal volumes (200 μL) of ^superFVa or saline 2 minutes prior to intravenous injection of rhAPC (Xigris®). Immediately after APC injection tail cut was performed. All agents were diluted in sterile sodium chloride 0.9% for injection (Hospira Inc).
Mice were anesthetized, placed on temperature controlled heating pads (37° C.), and the distal portion of the tail was cut at 1.5 mm diameter after which the tail was immersed in a predefined volume of 37° C. saline (0.9% NaCl) for 20 minutes. Blood loss was determined by the hemoglobin concentration in the saline solution after red cell lysis with 2% acetic acid and measured by absorbance at 405 nm. Using a hemoglobin standard derived from defined blood volumes, blood loss was calculated assuming a hematocrit of 46% and expressed in μL/g body weight. Groups of FVIII-deficient mice were injected intravenously (retro-orbital) within 2 minutes prior to tail cut with equal volumes ([…]) of sterile saline for injection (0.9%, Hospira Inc.), rhFVIII 200 units/kg FVIII (Xyntha®, Pfizer, NY, N.Y., USA) ^superFVa, rhFVIIa (NovoSeven®, NovoNordisk, Bagsvaerd, Denmark) or a combination of ^superFVa and rhFVIIa. All agents were diluted in sterile sodium chloride 0.9% for injection (Hospira Inc). […]

[4] = tested on: thrombin generation in normal human plasma; assay: Thrombin generation in NHP in the presence of rivaroxaban or apixaban; type: biochemical; settings: factor alone: rhFVIIa 2 μg/ml, ^superFVa 400 nM; NOAC 200 nM
Procedure: Thrombin generation or Endogenous Thrombin Potential (ETP) assays were performed as described. Briefly, plasma samples supplemented with CTI, TF, PCPS were preincubated […] in the presence or absence of rivaroxaban, apixaban, Kcentra®, NovoSeven® or ^superFVa. Thrombin generation was initiated by addition of CaCl2 and Z-Gly-Gly-Arg-AMC in HBS/0.5% BSA. The final reaction mixture contained, 50% plasma, 0.725 μM CTI, 0.2 Pm TF, 4 μM PCPS vesicles, 0.5 mM Z-GGR-AMC, 7.6 mM CaCl2 in a total volume of 100 μl. Concentrations of rivaroxaban, apixaban, Kcentra®, NovoSeven® or ^superFVa are indicated in the result section and in the figure legends. Fluorescence was measured at excitation/emission wavelengths of […] using Gemini EM fluorescent plate reader (Molecular Devices). Fluorescence time course data were converted to Nm thrombin as described. ETP, defined as the area under the curve (AUC) and the peak height were determined using Origin software.

[5] = tested on: thrombin generation in FVIII-deficient plasma; settings: von Drygalski et al. JTH 2014; cited from earlier work

Substance: ^superFVa: engineered APC-resistant FVa variant (SEQ ID NO:4): R306Q, R506Q, R679Q, Cys609-Cys1691 disulfide, S2183A, B-domain deleted
- aPTT ([1]; 0.05 U/mL FVa variants, 10 nM APC, human plasma, ~100 seconds without FVa): fully corrected the aPTT
- lower concentration normalizing the aPTT compared to FVa ([1]; human plasma with APC): 100 fold
- mean blood loss ([2]; ^superFVa (25 U/mL) prior to APC 1.25 mg/kg, 20 minutes after liver laceration): 29 µL/g
- bleeding-induced mortality ([2]; ^superFVa prior to APC, liver laceration): abolished bleeding-induced mortality
- bleeding during the 2nd 10 min phase ([2]; ^superFVa prior to wt APC, liver laceration): fully prevented bleeding
- mean blood loss ([3]; ^superFVa 10 U/kg iv): 25.9 µL/g
- mean blood loss ([3]; ^superFVa 40 U/kg iv): 9.7 µL/g
- mean blood loss ([3]; ^superFVa 200 U/kg iv): 2.5 µL/g
- ability to enhance the ETP of NHP suppressed with rivaroxaban or apixaban [4]: nor ^superFVa at high concentration (400 nM) were able to enhance the ETP
- increase of ETP in human FVIII-deficient plasma [5]: approximately 2 fold
